# ChEMBL document CHEMBL3425430, “α-Substituted 2-(3-fluoro-4-methylsulfonamidophenyl)acetamides as potent TRPV1 antagonists” (Bioorg Med Chem Lett, 2015)
# Legend:
# Format in all cases: cell-based
# [1] = biological target: T1, Transient receptor potential cation channel subfamily V member 1 (Homo sapiens, UniProt Q8NER1); assay: Antagonist activity at human TRPV1 expressed in CHO cells assessed as inhibition of capsaicin-induced activation by FLIPR assay
# [2] = biological target: T1, Transient receptor potential cation channel subfamily V member 1; assay: Antagonist activity at human TRPV1 expressed in CHO cells assessed as inhibition of N-arachidonoyl dopamine-induced activation by FLIPR assay
# [3] = biological target: T1, Transient receptor potential cation channel subfamily V member 1; assay: Antagonist activity at human TRPV1 expressed in CHO cells assessed as inhibition of 45 degC heat-induced activation by FLIPR assay
# T1 sequence (Q8NER1 whole entry): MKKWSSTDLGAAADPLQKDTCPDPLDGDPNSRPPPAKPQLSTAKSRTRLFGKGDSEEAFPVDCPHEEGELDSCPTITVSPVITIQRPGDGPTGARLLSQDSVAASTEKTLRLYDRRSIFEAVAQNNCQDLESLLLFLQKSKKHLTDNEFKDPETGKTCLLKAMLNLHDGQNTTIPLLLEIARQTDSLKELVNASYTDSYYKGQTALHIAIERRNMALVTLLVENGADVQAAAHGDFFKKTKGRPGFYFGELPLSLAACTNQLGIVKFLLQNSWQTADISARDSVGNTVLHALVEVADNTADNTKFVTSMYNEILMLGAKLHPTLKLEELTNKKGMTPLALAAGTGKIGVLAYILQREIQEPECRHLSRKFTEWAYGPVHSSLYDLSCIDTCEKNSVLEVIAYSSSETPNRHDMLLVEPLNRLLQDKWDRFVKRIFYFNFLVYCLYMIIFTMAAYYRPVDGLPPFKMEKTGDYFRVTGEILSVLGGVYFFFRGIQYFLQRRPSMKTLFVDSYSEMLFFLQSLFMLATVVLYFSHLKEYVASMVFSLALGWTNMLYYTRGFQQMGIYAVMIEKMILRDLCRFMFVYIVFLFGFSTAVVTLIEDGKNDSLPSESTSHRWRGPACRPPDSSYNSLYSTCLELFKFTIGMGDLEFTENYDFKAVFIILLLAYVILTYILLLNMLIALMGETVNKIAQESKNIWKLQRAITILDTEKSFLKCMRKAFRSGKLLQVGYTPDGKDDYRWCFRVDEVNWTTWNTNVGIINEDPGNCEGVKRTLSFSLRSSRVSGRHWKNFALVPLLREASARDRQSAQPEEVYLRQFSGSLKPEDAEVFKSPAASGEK
Compound,Ki ([1]; cho),Ki ([1]; read-out: Ki),also measured
CS(=O)(=O)Nc1ccc(C(C(=O)NCc2ccc(C(F)(F)F)nc2SC2CCCCC2)C2CCCCC2)cc1F (configuration not stated),Active,–,–
CCC(C)(C(=O)NCc1ccc(C(F)(F)F)nc1SC1CCCCC1)c1ccc(NS(C)(=O)=O)c(F)c1 (configuration not stated),Active,–,–
CC1CCN(c2nc(C(F)(F)F)ccc2CNC(=O)C(Cc2ccccc2)c2ccc(NS(C)(=O)=O)c(F)c2)CC1 (configuration not stated),–,65.9 nM,–
Cc1ccc(CC(C(=O)NCc2ccc(C(F)(F)F)nc2N2CCC(C)CC2)c2ccc(NS(C)(=O)=O)c(F)c2)cc1 (configuration not stated),Active,–,–
Cc1cccc(C(C(=O)NCc2ccc(C(F)(F)F)nc2SC2CCCCC2)c2ccc(NS(C)(=O)=O)c(F)c2)c1 (configuration not stated),–,56.4 nM,–
CC1CCN(c2nc(C(F)(F)F)ccc2CNC(=O)C2(c3ccc(NS(C)(=O)=O)c(F)c3)CCCC2)CC1,Active,–,–
CC1CCN(c2nc(C(F)(F)F)ccc2CNC(=O)C(Cc2ccc(F)cc2)c2ccc(NS(C)(=O)=O)c(F)c2)CC1 (configuration not stated),–,49.3 nM,–
CS(=O)(=O)Nc1ccc(C2(C(=O)NCc3ccc(C(F)(F)F)nc3SC3CCCCC3)CCCC2)cc1F,Active,–,–
Cc1cccc(C(C(=O)NCc2ccc(C(F)(F)F)nc2N2CCC(C)CC2)c2ccc(NS(C)(=O)=O)c(F)c2)c1 (configuration not stated),–,–,Ki [2]: 0.25 nM; IC50 [3]: 36.2 nM

# Further lines, with some results ahead:
Ki ([1]; cho),Ki ([1]; read-out: Ki),Compound,also measured
–,48.7 nM,CS(=O)(=O)Nc1ccc(C(C(=O)NCc2ccc(C(F)(F)F)nc2SC2CCCCC2)c2cccc(F)c2)cc1F (configuration not stated),–
–,7.5 nM,Cc1ccc(C(C(=O)NCc2ccc(C(F)(F)F)nc2SC2CCCCC2)c2ccc(NS(C)(=O)=O)c(F)c2)cc1 (configuration not stated),–
–,37.6 nM,CS(=O)(=O)Nc1ccc(C(C(=O)NCc2ccc(C(F)(F)F)nc2SC2CCCCC2)c2ccc(F)cc2)cc1F (configuration not stated),–
Active,–,Cc1ccccc1C(C(=O)NCc1ccc(C(F)(F)F)nc1SC1CCCCC1)c1ccc(NS(C)(=O)=O)c(F)c1 (configuration not stated),–
–,40.3 nM,Cc1ccc(CC(C(=O)NCc2ccc(C(F)(F)F)nc2SC2CCCCC2)c2ccc(NS(C)(=O)=O)c(F)c2)cc1 (configuration not stated),–
Active,–,CS(=O)(=O)Nc1ccc(C(Cc2ccc(F)cc2)C(=O)NCc2ccc(C(F)(F)F)nc2SC2CCCCC2)cc1F (configuration not stated),–
Active,–,CS(=O)(=O)Nc1ccc(C(Cc2ccccc2)C(=O)NCc2ccc(C(F)(F)F)nc2SC2CCCCC2)cc1F (configuration not stated),–
